Results taken from the NIST ThermoML archive (doi:10.1016/j.jct.2019.01.006).
Numbers after ± are expanded uncertainties.

Details: for mass density: 101.33 kPa, Liquid, Vibrating tube method; for vapor or sublimation pressure: Transpiration method

Row | mass density (293.15 K) [kg/m3] | mass density (298.15 K) [kg/m3] | mass density (303.15 K) [kg/m3] | mass density (308.15 K) [kg/m3] | mass density (313.15 K) [kg/m3] | vapor or sublimation pressure (419.15 K, Crystal) [kPa] | vapor or sublimation pressure (421.15 K, Crystal) [kPa] | vapor or sublimation pressure (423.15 K, Crystal) [kPa] | vapor or sublimation pressure (425.15 K, Crystal) [kPa] | vapor or sublimation pressure (427.15 K, Crystal) [kPa] | vapor or sublimation pressure (429.15 K, Crystal) [kPa] | vapor or sublimation pressure (431.15 K, Crystal) [kPa] | vapor or sublimation pressure (433.15 K, Crystal) [kPa] | vapor or sublimation pressure (435.15 K, Crystal) [kPa] | vapor or sublimation pressure (437.15 K, Crystal) [kPa] | vapor or sublimation pressure (439.15 K, Crystal) [kPa] | vapor or sublimation pressure (441.15 K, Crystal) [kPa] | vapor or sublimation pressure (443.15 K, Crystal) [kPa] | Normal melting temperature (Crystal, DTA) [°C] | Structure (SMILES)
1 | 659.4 ± 4.1 | 654.8 ± 4.1 | 650.2 ± 4.1 | 645.4 ± 4.1 | 640.7 ± 4.1 |  |  |  |  |  |  |  |  |  |  |  |  |  |  | CCCCCC [hexane]
2 | 825.1 ± 4 | 821.7 ± 4 | 818.3 ± 4 | 814.8 ± 4 | 811.4 ± 4 |  |  |  |  |  |  |  |  |  |  |  |  |  |  | CCCCCCCCO [octan-1-ol]
3 |  |  |  |  |  | 0.000753 ± 0.00012 | 0.000867 ± 0.00013 | 0.000966 ± 0.00013 | 0.001118 ± 0.00013 | 0.001294 ± 0.00013 | 0.001475 ± 0.00013 | 0.001694 ± 0.00014 | 0.001933 ± 0.00014 | 0.002207 ± 0.00015 | 0.002483 ± 0.00016 | 0.002882 ± 0.00017 | 0.003179 ± 0.00018 | 0.003735 ± 0.0002 | 232.60 ± 0.5 | Cc1c(Cl)cccc1Nc1ncccc1C(=O)O [2-(2-methyl-3-chloroanilino)nicotinic acid]
